Earlier results in patent US20210400979A1, “ANTI-VIRAL FACE MASK AND FILTER MATERIALS” (priority 2020, published 2021).

What was measured:
[1] = system: RTCs of SARS-CoV (RNA-synthesizing activity); settings: RTCs isolated from SARS-CoV infected cells, various Zn^2+ concentrations (FIG. 13A)

Compound | RNA-synthesizing activity of the RTCs of the virus [1] | water solubility (in words)
[Zn+2] [Zn^2+] | efficiently inhibits | –
zinc picolinate | – | moderately water soluble
